Laboratory results published in BindingDB's records for doi:10.1021/jm050113z (University of North Carolina at Chapel Hill, 2005).

Biological target: T1, Protein RecA (Escherichia coli (strain K12), UniProt P0A7G6)
T1 sequence (P0A7G6 whole entry): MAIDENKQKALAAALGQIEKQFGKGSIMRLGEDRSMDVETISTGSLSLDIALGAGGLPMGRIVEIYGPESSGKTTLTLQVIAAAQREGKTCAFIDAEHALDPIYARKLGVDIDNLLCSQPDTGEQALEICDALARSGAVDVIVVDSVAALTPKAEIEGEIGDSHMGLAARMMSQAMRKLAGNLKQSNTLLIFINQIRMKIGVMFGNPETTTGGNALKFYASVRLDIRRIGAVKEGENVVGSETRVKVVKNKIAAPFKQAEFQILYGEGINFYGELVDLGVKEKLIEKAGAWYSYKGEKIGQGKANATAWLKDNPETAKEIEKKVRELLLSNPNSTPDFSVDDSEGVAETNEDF
Experiment: In vitro apparent inhibition constant against Escherichia coli RecA protein

O=P(O)(O)OP(=O)(O)OC[C@H]1O[C@@H](n2cnc3c(Nc4cccc5ccccc45)ncnc32)[C@H](O)[C@@H]1O
Ki: 46 µM
